# Results published in US5760092A, “Allocolchinones and uses thereof” (Brandeis University, priority 1996, dated 1998).
# Columns and labels:
# tubulin = format: biochemical, calf
# [1] = system: OVCAR-3 ovarian cancer cells; assay: cells; conditions: Homo sapiens
compound,measurement,setting,value
COc1cc2c(c(OC)c1OC)-c1ccc(C(C)=O)cc1C(NC(C)=O)CC2 (centres unmarked),activity relative to colchicine (inhibition of microtubule assembly),tubulin; drug to tubulin molar concentration ratio of about 0.030,about 20%
same,inhibition of microtubule formation compared with colchicine,tubulin; in vitro,more active than colchicine
same,IC50,"tubulin; in vitro, read-out: LC50 (inhibition of microtubule assembly in vitro)",300 nM
same,plateau turbidity,"tubulin; increasing amounts of drug, tubulin 2.1×10^-5 M",decrease in plateau turbidity
same,activity at 100 µM,"[1]; OVCAR-3, read-out: Percent Growth, log10 conc -4.0",5%
same,activity at 10 µM,"[1]; OVCAR-3, read-out: Percent Growth, log10 conc -5.0",5%
same,activity at 0.001 µM,"[1]; OVCAR-3, read-out: Percent Growth, log10 conc -9.0",-11%
same,activity at 0.0001 µM,"[1]; OVCAR-3, read-out: Percent Growth, log10 conc -10.0",97%
